Reference: publication PMC6943441, “The Meta-Position of Phe^4 in Leu-Enkephalin Regulates Potency, Selectivity, Functional Activity, and Signaling Bias at the Delta and Mu Opioid Receptors” (Molecules, 2019)
Like-named read-outs stand apart in the source and are kept apart here. Square brackets hold non-standard residues; d marks the D form. Peptide text beside a SMILES is read from it. 3Pal = N[C@@H](Cc1cccnc1)C(=O)O

Key:
δOR [1] = molecular target: T1, δOR (Homo sapiens, UniProt P41143); conditions: cited from earlier work
T1 sequence (P41143 whole entry): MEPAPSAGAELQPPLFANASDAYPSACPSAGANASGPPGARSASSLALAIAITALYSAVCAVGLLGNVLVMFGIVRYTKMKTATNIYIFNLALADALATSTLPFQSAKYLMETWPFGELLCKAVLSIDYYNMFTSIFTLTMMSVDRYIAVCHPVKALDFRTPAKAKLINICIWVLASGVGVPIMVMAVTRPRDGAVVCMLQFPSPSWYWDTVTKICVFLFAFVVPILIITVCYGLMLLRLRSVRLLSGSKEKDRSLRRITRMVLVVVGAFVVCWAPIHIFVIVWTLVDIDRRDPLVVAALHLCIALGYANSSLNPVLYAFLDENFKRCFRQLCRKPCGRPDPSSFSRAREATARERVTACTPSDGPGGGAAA

δOR [2] = molecular target: T1, δOR; conditions: cited from earlier work; remark: listed apart in the source
δOR [3] = molecular target: T1, δOR; conditions: at best; cited from earlier work
µOR [4] = molecular target: T2, µOR (Homo sapiens, UniProt P35372); conditions: BRET (β-arrestin 2) and EPAC (cAMP) assays; footnote prints reference 26; cited from earlier work
T2 sequence (P35372 whole entry): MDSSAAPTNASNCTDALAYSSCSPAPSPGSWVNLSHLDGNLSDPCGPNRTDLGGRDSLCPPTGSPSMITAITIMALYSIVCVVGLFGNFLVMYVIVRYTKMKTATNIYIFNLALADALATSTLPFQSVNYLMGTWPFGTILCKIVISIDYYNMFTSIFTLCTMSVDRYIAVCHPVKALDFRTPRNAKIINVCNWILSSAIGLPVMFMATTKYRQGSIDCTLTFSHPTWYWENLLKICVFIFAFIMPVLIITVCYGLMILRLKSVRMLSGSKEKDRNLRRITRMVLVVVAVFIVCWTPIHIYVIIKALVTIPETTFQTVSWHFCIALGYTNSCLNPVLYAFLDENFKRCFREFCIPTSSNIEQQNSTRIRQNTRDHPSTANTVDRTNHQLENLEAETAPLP

δOR [5] = molecular target: T1, δOR; conditions: literature value; cited from earlier work
δOR [6] = molecular target: T1, δOR; assay: Competition radioligand binding, [3H]DPDPE
Method: (§1) Next, 100 µL of membrane suspension containing 7 µg protein was added to the agonist wells and incubated for 90 min at room temperature. The reaction mixture was then filtered over a GF-B filter plate (Perkin Elmer) followed by four quick washes with ice-cold 50 mM Tris HCl. The plate was dried overnight, after which 50 µL scintillation fluid (Ultimagold uLLT) was added and radioactivity was counted on a Packard TopCount NXT scintillation counter. All working solutions were prepared in a radioligand assay buffer containing 50 mM Tris HCl, 10 mM MgCl2, and 1 mM ethylenediaminetetraacetic acid at pH 7.4.

Rat plasma stability = assay: Rat plasma stability
Method: Peptides were synthesized using an Aapptec Focus XC automated peptide synthesizer coupled with a heating system using a solid phase peptide synthesis protocol using Fmoc chemistry. Preparative RP-HPLC was performed using an appropriate column and solvent system (described below) and final purity of peptides was determined by UV area % from UPLC analysis. Peptides were purified by Teledyne ISCO EZ Prep system on RediSep® C18 Prep column (30 × 250 mm, 100 Å). […] Plasma stability was also assessed using the above UPLC column and solvent gradient program using a Waters H class Plus Acquity UPLC system coupled with a QDa detector using protocol B.
Sprague Dawley rat plasma containing K2-ethylenediaminetetraacetic acid (Innovative Research, MI, USA) was transferred into 300 µL aliquots and stored at −20 °C until use. […] After adding analog, an aliquot of the mixture was removed at each indicated time point (0, 5, 10, 15, 20, 30, 60, 120, 240 min) and immediately quenched with 100 μL of a methanol solution containing 20 μM Fmoc-Leu-OH as an internal standard. […] Then, the filtrate was transferred into vials and a 5 μL sample of the resulting solution was analyzed on an UPLC system coupled with a QDa detector. […] Determination of half-life (t1/2) was carried out by using the GraphPad Prism one-phase decay method.

µOR [7] = molecular target: T2, µOR; assay: Competition radioligand binding, [3H]DAMGO
Method: as §1

FLAG-mouse δOR = molecular target: T3, FLAG-mouse δOR (Mus musculus, UniProt P32300); assay: cAMP GloSensor inhibition assay in HEK 293 cells; type: cell-based
T3 construct: FLAG; expressed in transfected cells; host or cells: HEK 293
T3 sequence (P32300 whole entry): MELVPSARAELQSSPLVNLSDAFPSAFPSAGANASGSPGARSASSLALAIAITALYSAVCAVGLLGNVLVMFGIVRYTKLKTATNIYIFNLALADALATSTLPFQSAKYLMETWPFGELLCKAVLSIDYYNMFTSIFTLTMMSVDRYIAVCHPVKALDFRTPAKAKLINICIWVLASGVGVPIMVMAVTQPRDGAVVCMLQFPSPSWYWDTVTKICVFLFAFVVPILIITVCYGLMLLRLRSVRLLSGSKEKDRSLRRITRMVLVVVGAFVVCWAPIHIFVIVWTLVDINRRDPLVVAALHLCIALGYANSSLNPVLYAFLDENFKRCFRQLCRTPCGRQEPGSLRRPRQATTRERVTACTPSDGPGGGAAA
Method: (§2) In brief, for cAMP inhibition assays HEK 293 (Life Technologies, Grand Island, NY, USA) cells were transiently transfected in a 1:3 ratio with FLAG-mouse δOR, or HA-mouse µOR and pGloSensor22F-cAMP plasmids (Promega, Madison, WI, USA) using Xtremegene9 (Sigma). Two days post-transfection cells (20,000 cells/well, 7.5 µL) were seeded in low volume Greiner 384-well plates (#82051-458, VWR, Batavia, IL, USA) and were incubated with Glosensor reagent (Promega, 7.5 µL, 2% final concentration) for 90 min at room temperature. […] For β-arrestin recruitment assays, CHO-human µOR PathHunter β-arrestin 2 cells or CHO-human δOR PathHunter β-arrestin 2 cells (DiscoverX, Fremont, CA, USA) were plated (2,500 cells/well, 10 µL) one day prior to stimulation with 2.5 µL drug solution for 90 min at 37 °C/5% CO2, after which cells were incubated with 6 µL cell PathHunter assay buffer (DiscoverX) for 60 min at room temperature as per the manufacturer’s protocol. Luminescence for each of these assays was measured using a FlexStation3 plate reader (Molecular Devices, Sunnyvale, CA, USA).
(§3) All data are presented as means ± standard error of the mean, and analysis was performed using GraphPad Prism 8 software (GraphPad Software, La Jolla, CA). For in vitro assays, nonlinear regression was conducted to determine pIC50 (cAMP) or pEC50 (β-arrestin 2 recruitment). […] The averages of each independent run were counted as a single experiment and combined to provide a composite curve in favor of providing a ‘representative’ curve. In each experimental run, a positive control/reference compound was utilized to allow the data to be normalized and to calculate the log bias value. A minimum of three independent values were obtained for each compound in each of the cellular assays.

HA-mouse µOR = molecular target: T4, HA-mouse µOR (Mus musculus, UniProt P42866); assay: cAMP GloSensor inhibition assay in HEK 293 cells; type: cell-based; conditions: HEK 293, forskolin 30 µM; read-out: cAMP IC50 (nM) µOR
T4 construct: HA; expressed in transfected cells; host or cells: HEK 293
T4 sequence (P42866 whole entry): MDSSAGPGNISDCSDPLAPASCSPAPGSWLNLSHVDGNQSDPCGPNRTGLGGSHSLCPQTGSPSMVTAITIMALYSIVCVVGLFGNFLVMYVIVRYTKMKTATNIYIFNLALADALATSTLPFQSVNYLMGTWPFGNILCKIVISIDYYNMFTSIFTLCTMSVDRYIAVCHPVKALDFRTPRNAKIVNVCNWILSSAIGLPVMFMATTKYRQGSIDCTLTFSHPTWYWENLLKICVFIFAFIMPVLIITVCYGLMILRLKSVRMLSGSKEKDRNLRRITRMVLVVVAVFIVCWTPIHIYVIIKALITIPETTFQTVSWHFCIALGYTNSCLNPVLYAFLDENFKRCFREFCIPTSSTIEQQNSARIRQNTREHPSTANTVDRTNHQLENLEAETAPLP
Method: as §2, §3

µOR [8] = molecular target: T2, µOR; assay: cell-based; type: cell-based; conditions: CHO PathHunter; read-out: β-Arrestin 2 EC50 (nM) µOR
Method: as §2, §3

δOR [9] = molecular target: T1, δOR; assay: PathHunter β-arrestin 2 recruitment assay in CHO cells
Method: as §2, §3

For rubiscolin-6, the “Bias Factor δOR” value (δOR [1]; literature value) is listed as 2.0 and the “β-arrestin 2 efficacy” value (δOR [2]) is listed as 20%.

In the case of Dmt-Tic-Gly-NH-Ph, the “selectivity for δORs over µORs” value (δOR [3]) is given as at most 10 fold.

For aza-β-homoleucine-enkephalin, the “Bias Factor µOR (LE = Ref)” value (µOR [4]) is listed as 1.2, the “G Protein Selectivity (δOR vs µOR)” value (δOR [5]) is listed as 9.9 [23] and the “Bias Factor δOR” value (δOR [1]; BRET (β-arrestin 2) and EPAC (cAMP) assays, footnote prints reference 26) is listed as 5.2. The “Bias Factor δOR” value (δOR [1]; BRET (β-arrestin 2) and EPAC (cAMP) assays, footnote prints reference 26, listed as Aza-β-homoleucine) was 5.2 ^¶, the “selectivity for δORs over µORs” value (δOR [3]) was at most 10 fold and the “β-arrestin 2 efficacy” value (δOR [2]) was 64%.

With CC(C)C[C@H](NC(=O)[C@H](Cc1cccnc1)NC(=O)CNC(=O)CNC(=O)[C@@H](N)Cc1ccc(O)cc1)C(=O)O [Compound 1k] (H-YGG[3Pal]L-OH; N-terminus and C-terminus assumed) the Ki (δOR [6]) was 33.1 nM, the “Binding Selectivity (δOR vs µOR)” value (δOR [6]; ratio of Ki values) was 4.8 and the “Degradation Products (First Appearance)” value (Rat plasma stability; rat plasma, UPLC-mass spectrometry, time of first appearance in parentheses) was “(3-pyridyl)Ala-Leu (10 min) Gly-Gly-(3-pyridyl)Ala-Leu (20 min)”. For the same compound, the half-life (Rat plasma stability; rat, plasma) was 54 min, the Ki (µOR [7]) was 158 nM and the IC50 (FLAG-mouse δOR; HEK 293, forskolin 30 µM, read-out: cAMP IC50 (nM) δOR) was 47.9 nM. The “G Protein Selectivity (δOR vs µOR)” value (FLAG-mouse δOR; cAMP potency δOR vs µOR) was 4.9, the IC50 (HA-mouse µOR) was 234 nM and the EC50 (µOR [8]) was 41700 nM. The EC50 (δOR [9]) was 1120 nM.
